According to US9474790B2, “Stable, protracted GLP-1/glucagon receptor co-agonists for medical use” (Novo Nordisk A/S, priority 2013, dated 2016):
pEC50, pIC50: −log10 of the molar value. Numbered stars: 1 amine (or outer) side, 2 acyl side, 3 side chain; on linkers, the order of the positions; unused ones are H or OH. Square brackets hold non-standard residues; d marks the D form. Side chains are listed from the residue outwards. Peptide text beside a SMILES is read from it. * marks the point of attachment. C18 diacid = O=C(O)CCCCCCCCCCCCCCCCC(=O)*; γGlu = O=C(O)[C@H](CCC(=O)[*:2])N[*:1]; AEEA = NCCOCCOCC(=O)O; Aib = CC(C)(N)C(=O)O

Experiments:
[1] = target: T1, human GLP-1 receptor (Homo sapiens, UniProt P43220); experiment: GLP-1 receptor potency, CRE luciferase reporter gene assay in BHK cells; assay type: cell-based; conditions: BHK cells expressing human GLP-1 receptor, read-out: EC50 GLP-1R
T1 construct: expressed in transfected cells; host or cells: BHK cells (parent BHKTS13), clone FCW467-12A/KZ10-1, with CRE luciferase
Protocol: The purpose of this example was to test the potency, of the glucagon derivatives of the invention, in vitro. The in vitro potency is the measure of human GLP-1 receptor or glucagon receptor activation, respectively, in a whole cell assay.
In vitro potency was determined by measuring the response of human GLP-1 or glucagon receptor, respectively, in a reporter gene assay. The assay was performed in a stably transfected BHK cell line that expresses either the human GLP-1 receptor or the human glucagon receptor and contains the DNA for the cAMP response element (CRE) coupled to a promoter and the gene for firefly luciferase (CRE luciferase). […] When assay incubation was completed, the luciferase substrate (luciferin) was added and the enzyme converted luciferin to oxyluciferin and produces bioluminescence. The luminescence was measured as the readout for the assay.
The cells used in this assay (clone FCW467-12A/KZ10-1) were BHK cells with BHKTS13 as a parent cell line. The cells were derived from a clone (FCW467-12A) that expresses the human GLP-1 receptor and were established by further transfection with
CRE luciferase to obtain the current clone.
The cells were cultured at 5% CO2 in DMEM medium with 10% FBS, 1×GlutaMAX, 1 mg/ml G418, 240 nM MTX (methotrexate) and 1% pen/strep (penicillin/streptomycin). They were aliquoted and stored in liquid nitrogen. Before each assay, an aliquot was taken up and washed three times in PBS before being suspended at the desired concentration in assay medium. For 96-well plates the suspension was made to give a final concentration of 5×10EE3 cells/well.
The following chemicals were used in the assay: Pluronic F-68 (10%) (Gibco 2404), ovalbumin (Sigma A5503), DMEM w/o phenol red (Gibco 11880-028), 1 M Hepes (Gibco 15630), Glutamax 100× (Gibco 35050) and steadylite plus (PerkinElmer 6016757).
Assay Medium consisted of DMEM w/o phenol red, 10 mM Hepes, lx GlutaMAX, 2% Ovalbumin and 0.2% Pluronic F-68.
Cell stocks were thawed in a 37° C. water bath. Cells were washed three times in PBS. The cells were counted and adjusted to 5×10EE3 cells/50 μl (1×10EE5 cells/ml) in Assay Medium. A 50 μl aliquot of cells was transferred to each well in the assay plate.
Stocks of the test compounds and reference compounds were diluted to a concentration of […] in Assay Medium. Compounds were diluted 10-fold to give the following concentrations: 2×10EE-6 M, 2×10EE-7 M, 2×10EE-8 M; 2×10EE-9 M, 2×10EE-10 M, 2×10EE-11 M, 2×10EE-12 M and 2×10EE-13 M. For each compound a blank assay medium control was also included.
A 50 μl aliquot of compound or blank was transferred from the dilution plate to the assay plate. Compounds were tested at the following final concentrations: 1×10EE-6 M, 1×10EE-7 M, 1×10EE-8 M; 1×10EE-9 M, 1×10EE-10 M, 1×10EE-11 M and 1×10EE-12 M and 1×10EE-13 M.
The assay plate was incubated for 3 h in a 5% CO2 incubator at 37° C. The assay plate was removed from the incubator and allowed to stand at room temperature for 15 min. A 100 μl aliquot of steadylite plus reagent was added to each well of the assay plate (reagent is light sensitive). Each assay plate was covered with aluminum foil to protect it from light and shaken for 30 min at room temperature. Each assay plate was read in a Perkin Elmer TopCount NXT instrument.
The data from the TopCount instrument was transferred to GraphPad Prism software. The software performed a non-linear regression (log(agonist) vs response-Variable slope (four parameter)). EC50 values were calculated by the software and reported in pM.

[2] = target: T1, human GLP-1 receptor; experiment: GLP-1 receptor binding, 125I-GLP-1 displacement SPA on isolated membranes; conditions: displacement of 125I-GLP-1 from membranes; read-out: IC50 GLP-1R
Protocol: The purpose of this assay was to test the in vitro receptor binding activity of the glucagon derivatives of the invention. The receptor binding is a measure of affinity of a compound for the human GLP-1 receptor.
The receptor binding of each compound to the human GLP-1 receptor was measured in a displacement binding assay. In this type of assay a labelled ligand (in this case 125I-GLP-1) is bound to the receptor. Each derivative was added in a series of concentrations to isolated membranes containing the human GLP-1 receptor and displacement of the labelled ligand was monitored. The receptor binding was reported as the concentration at which half of the labelled ligand was displaced from the receptor, the IC50 value.
In order to test the binding of the derivatives to albumin, the assay may be performed in a very low concentration of serum albumin (max. 0.001% final assay concentration) as well as in the presence of a higher concentration of serum albumin (2.0% final assay concentration). An increase of the IC50 value, in the presence of serum albumin indicates an affinity to serum albumin and represents a method to predict a protracted pharmacokinetic profile of the test substance in animal models.
The following chemicals were used in the assay: DMEM w/o phenol red (Gibco 11880-028), Pen/strep (Invitrogen 15140-122), G418 (Invitrogen 10131-027), 1 M Hepes (Gibco 15630), EDTA (Invitrogen 15575-038), PBS (Invitrogen 14190-094), fetal calf serum (Invitrogen 16140-071), EGTA, MgCl2 (Merck 1.05832.1000), Tween 20 (Amresco 0850C335), SPA particles (wheat germ agglutinin (WGA) SPA beads, Perkin Elmer RPNQ0001), [125I]-GLP-1]-(7-36)NH2 (produced in-house), OptiPlate™-96 (Perkin Elmer).
Buffer 1 consisted of 20 mM Na-HEPES plus 10 mM EDTA and pH was adjusted to 7.4.
Buffer 2 consisted of 20 mM Na-HEPES plus 0.1 mM EDTA and pH was adjusted to 7.4.
Assay buffer consisted of 50 mM HEPES supplemented with 5 mM EGTA, 5 mM MgCl2, 0.005% Tween 20 and pH was adjusted to 7.4.
The cells used in this assay (clone FCW467-12A) were BHK cells with BHKTS13 as a parent cell line. The cells express the human GLP-1 receptor.
The cells were grown at 5% CO2 in DMEM, 10% fetal calf serum, 1% Pen/Strep (Penicillin/Streptomycin) and 1.0 mg/ml of the selection marker G418. To make a membrane preparation the cells were grown to approximately 80% confluence. The cells were washed twice in phosphate-buffered saline and harvested. The cells were pelleted using a brief centrifugation and the cell pellet was kept on ice. The cell pellet was homogenised with ULTRA-THURRAX dispersing instrument for 20-30 sec in a suitable amount of buffer 1 (e.g. 10 ml). The homogenate was centrifuged for 15 min. The pellet was re-suspended (homogenised) in 10 ml buffer 2 and centrifuged. This step was repeated once more. The resulting pellet was re-suspended in buffer 2 and the protein concentration was determined. The membranes were aliquoted and stored at minus 80° C.
1. For the receptor binding assay, 50 μl of the assay buffer was added to each well of an assay plate.
2. Test compounds were serially diluted to give the following concentrations: 8×10EE-7 M, 8×10EE-8 M, 8×10EE-9 M, 8×10EE-10 M, 8×10EE-11 M, 8×10EE-12 M and 8×10EE-13 M. Twenty-five μl were added to appropriate wells in the assay plate.
3. Cell membrane aliquots were thawed and diluted to their working concentration. Fifty μl were added to each well in the assay plate.
4. WGA SPA beads were suspended in assay buffer at 20 mg/ml. The suspension was diluted to 10 mg/ml in assay buffer just prior to addition to the assay plate. Fifty μl were added to each well in the assay plate.
5. The incubation was started by adding 25 μl of 480 pM solution of [125I]-GLP-1]-(7-36)NH2 to each well of the assay plate. A 25 μl aliquot was reserved for measuring total counts/well.
6. The assay plate was incubated for 2 h at 30° C.
7. The assay plate was centrifuged for 10 min.
8. The assay plate was read in a Perkin Elmer TopCount NXT instrument. […]

T1 sequence (P43220 24-463): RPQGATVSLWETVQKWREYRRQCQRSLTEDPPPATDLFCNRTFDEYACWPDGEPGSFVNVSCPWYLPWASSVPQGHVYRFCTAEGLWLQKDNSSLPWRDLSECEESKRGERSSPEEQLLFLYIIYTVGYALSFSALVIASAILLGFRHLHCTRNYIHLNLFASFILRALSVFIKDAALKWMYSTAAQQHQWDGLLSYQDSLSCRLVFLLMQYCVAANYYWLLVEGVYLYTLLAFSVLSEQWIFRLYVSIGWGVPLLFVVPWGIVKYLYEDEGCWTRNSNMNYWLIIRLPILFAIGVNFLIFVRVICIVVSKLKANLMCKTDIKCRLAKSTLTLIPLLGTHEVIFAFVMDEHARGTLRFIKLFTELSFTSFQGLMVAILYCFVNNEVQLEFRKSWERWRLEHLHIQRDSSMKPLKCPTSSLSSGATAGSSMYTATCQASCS

| pEC50 [1] | pIC50 [2] | SMILES |
| --- | --- | --- |
| 11.52 | 9.70 | CC(C)C[C@H](NC(=O)[C@H](Cc1ccc(O)cc1)NC(=O)[C@H](CCCCN)NC(=O)[C@H](CO)NC(=O)[C@H](CC(C)C)NC(=O)[C@H](CC(=O)O)NC(=O)[C@H](CO)NC(=O)[C@@H](NC(=O)[C@H](Cc1ccccc1)NC(=O)[C@@H](NC(=O)CNC(=O)[C@H](CCC(N)=O)NC(=O)C(C)(C)NC(=O)[C@@H](N)Cc1c[nH]cn1)[C@@H](C)O)[C@@H](C)O)C(=O)N[C@@H](CCC(=O)O)C(=O)N[C@@H](CO)C(=O)N[C@@H](CCCNC(=N)N)C(=O)N[C@@H](CCCNC(=N)N)C(=O)N[C@@H](C)C(=O)N[C@@H](CCCNC(=N)N)C(=O)N[C@@H](CC(=O)O)C(=O)N[C@@H](Cc1ccccc1)C(=O)N[C@H](C(=O)N[C@@H](CCC(N)=O)C(=O)N[C@@H](Cc1c[nH]c2ccccc12)C(=O)N[C@@H](CC(C)C)C(=O)N[C@@H](CC(C)C)C(=O)N[C@@H](CCCCNC(=O)COCCOCCNC(=O)COCCOCCNC(=O)CC[C@H](NC(=O)CC[C@H](NC(=O)CC[C@H](NC(=O)CCCCCCCCCCCCCCCCC(=O)O)C(=O)O)C(=O)O)C(=O)O)C(=O)N[C@H](C(N)=O)[C@@H](C)O)C(C)C [Example 57, N^ε28-[2-[2-[2-[(2-[2-[2-[[(4S)-4-carboxy-4-[[(4S)-4-carboxy-4-[[(4S)-4-carboxy-4-(17-carboxyheptadecanoylamino)butanoyl]amino]butanoyl]amino]butanoyl]amino]ethoxy]ethoxy]acetyl]amino]ethoxy]ethoxy]acetyl]-[Aib2,Leu10,Glu15,Arg20,Leu27,Lys28]-Glucagon amide] (H-H[Aib]QGTFTSDLSKYLESRRARDFVQWLLK([AEEA-AEEA-γGlu-γGlu-γGlu-C18 diacid])T-NH2; N-terminus assumed) |
| 11.52 | 9.05 | CC(C)C[C@H](NC(=O)[C@H](Cc1ccc(O)cc1)NC(=O)[C@H](CCCNC(=N)N)NC(=O)[C@H](CO)NC(=O)[C@H](CC(C)C)NC(=O)[C@H](CC(=O)O)NC(=O)[C@H](CO)NC(=O)[C@@H](NC(=O)[C@H](Cc1ccccc1)NC(=O)[C@@H](NC(=O)CNC(=O)[C@H](CCC(N)=O)NC(=O)C(C)(C)NC(=O)[C@@H](N)Cc1c[nH]cn1)[C@@H](C)O)[C@@H](C)O)C(=O)N[C@@H](CC(=O)O)C(=O)N[C@@H](C)C(=O)N[C@@H](CCCNC(=N)N)C(=O)N[C@@H](CCCNC(=N)N)C(=O)N[C@@H](C)C(=O)N[C@@H](CCC(N)=O)C(=O)N[C@@H](CC(=O)O)C(=O)N[C@@H](Cc1ccccc1)C(=O)N[C@H](C(=O)N[C@@H](CCC(N)=O)C(=O)N[C@@H](Cc1c[nH]c2ccccc12)C(=O)N[C@@H](CC(C)C)C(=O)N[C@@H](CC(C)C)C(=O)N[C@@H](CCCCNC(=O)COCCOCCNC(=O)COCCOCCNC(=O)CC[C@H](NC(=O)CC[C@H](NC(=O)CC[C@H](NC(=O)CCCCCCCCCCCCCCCCC(=O)O)C(=O)O)C(=O)O)C(=O)O)C(=O)N[C@H](C(N)=O)[C@@H](C)O)C(C)C [Example 64, N^ε28-[2-[2-[2-[[2-[2-[2-[[(4S)-4-carboxy-4-[[(4S)-4-carboxy-4-[[(4S)-4-carboxy-4-(17-carboxyheptadecanoylamino)butanoyl]amino]butanoyl]amino]butanoyl]amino]ethoxy]ethoxy]acetyl]amino]ethoxy]ethoxy]acetyl]-[Aib2,Leu10,Arg12,Ala16,Leu27,Lys28]-Glucagon amide] (H-H[Aib]QGTFTSDLSRYLDARRAQDFVQWLLK([AEEA-AEEA-γGlu-γGlu-γGlu-C18 diacid])T-NH2; N-terminus assumed) |
